# Reference: ChEMBL document CHEMBL3576857, “Biosynthetic products from a nearshore-derived gram-negative bacterium enable reassessment of the kailuin depsipeptides” (J Nat Prod, 2015)
# The source made the active and inactive calls. No cut-off for these calls is given here.
# Columns and labels:
# Assay type in all cases: functional, cell-based
# HCT-116 = assay: Cytotoxicity against human HCT116 cells
# HeLa = assay: Cytotoxicity against human HeLa cells assessed as effect on phenotypic features by automated microscopy and image analysis
# MCF7 = assay: Cytotoxicity against human MCF7 cells
Structure (SMILES),IC50 (HCT-116) [µM],Activity (HeLa),IC50 (MCF7) [µM]
CC[C@H](C)[C@@H]1NC(=O)[C@@H](CC(C)C)NC(=O)[C@H]([C@@H](C)O)NC(=O)[C@H](CO)NC(=O)[C@@H](CC(C)C)NC(=O)C[C@@H](CCCCCCCCC(C)C)OC1=O,17,–,–
CCCCCCCCCCC[C@@H]1CC(=O)N[C@H](CC(C)C)C(=O)N[C@@H](CO)C(=O)N[C@@H]([C@@H](C)O)C(=O)N[C@H](CC(C)C)C(=O)N[C@@H]([C@@H](C)CC)C(=O)O1,18,Active,–
CC[C@H](C)[C@@H]1NC(=O)[C@@H](CC(C)C)NC(=O)[C@H]([C@@H](C)O)NC(=O)[C@H](CO)NC(=O)[C@@H](CC(C)C)NC(=O)CCNC1=O,> 1000,–,–
CC[C@H](C)[C@@H]1NC(=O)[C@@H](CC(C)C)NC(=O)[C@H]([C@@H](C)O)NC(=O)[C@H](CO)NC(=O)[C@@H](CC(C)C)NC(=O)CCC(=O)C1=O,> 1000,–,–
CCCCCCC[C@@H]1CC(=O)N[C@H](CC(C)C)C(=O)N[C@@H](CO)C(=O)N[C@@H]([C@@H](C)O)C(=O)N[C@H](CC(C)C)C(=O)N[C@@H]([C@@H](C)CC)C(=O)O1,–,–,4
CCCCCCCCCC[C@@H]1CC(=O)N[C@H](CC(C)C)C(=O)N[C@@H](CO)C(=O)N[C@@H]([C@@H](C)O)C(=O)N[C@H](CC(C)C)C(=O)N[C@@H]([C@@H](C)CC)C(=O)O1,32,–,–
CCCCCC/C=C\CCC[C@@H]1CC(=O)N[C@H](CC(C)C)C(=O)N[C@@H](CO)C(=O)N[C@@H]([C@@H](C)O)C(=O)N[C@H](CC(C)C)C(=O)N[C@@H]([C@@H](C)CC)C(=O)O1,28,Active,4
CCCCCCCCC[C@@H]1CC(=O)N[C@H](CC(C)C)C(=O)N[C@@H](CO)C(=O)N[C@@H]([C@@H](C)O)C(=O)N[C@H](CC(C)C)C(=O)N[C@@H]([C@@H](C)CC)C(=O)O1,22,–,3
CC[C@H](C)[C@@H]1NC(=O)[C@@H](CC(C)C)NC(=O)[C@H]([C@@H](C)O)NC(=O)[C@H](CO)NC(=O)[C@@H](CC(C)C)NC(=O)C[C@@H](CCCCCCC(C)C)OC1=O,50,–,6
